Measurements reported in patent publication US8802704B2, “Oxadiazole derivatives” (Merck Serono SA, priority 2009, dated 2014).
Like-named read-outs stand apart in the source and are kept apart here.

How the values were obtained:
S1P1 [1] = target: T1, S1P1 (Homo sapiens, UniProt P21453); test: Receptor binding assay, [33P]sphingosine 1-phosphate competition (SPA), S1P1
Experimental: Cells were suspended in 50 mM TRIS, pH 7.4, 2 mM EDTA, 250 mM Sucrose (buffer A) and 1× Complete protease inhibitor cocktail (Roche), and disrupted at 4° C. by N2 decompression using a cell disruption bomb (Parr Instrument). […] The pellet was then suspended in 10 mM HEPES, pH 7.4, 1 mM EDTA, 250 mM Sucrose (Buffer B), and 1× Complete EDTA-free protease inhibitor cocktail and homogenized using a potter. Membranes were flash frozen in liquid N2 and stored at −80° C.
[33P]sphingosine 1-phosphate (3000 Ci/mmol; American Radiolabeled Chemicals, Inc.) was added to test compounds in 20% DMSO by competition. […] Triplicate samples were averaged and normalized as percentage of inhibition relative to total binding (only DMSO in well) and non-specific binding (1000-fold excess of unlabeled S1P). Binding data were analyzed using the GraphPad Prism program or Genedata software.
Target sequence in this assay (P21453 whole entry, species assumed): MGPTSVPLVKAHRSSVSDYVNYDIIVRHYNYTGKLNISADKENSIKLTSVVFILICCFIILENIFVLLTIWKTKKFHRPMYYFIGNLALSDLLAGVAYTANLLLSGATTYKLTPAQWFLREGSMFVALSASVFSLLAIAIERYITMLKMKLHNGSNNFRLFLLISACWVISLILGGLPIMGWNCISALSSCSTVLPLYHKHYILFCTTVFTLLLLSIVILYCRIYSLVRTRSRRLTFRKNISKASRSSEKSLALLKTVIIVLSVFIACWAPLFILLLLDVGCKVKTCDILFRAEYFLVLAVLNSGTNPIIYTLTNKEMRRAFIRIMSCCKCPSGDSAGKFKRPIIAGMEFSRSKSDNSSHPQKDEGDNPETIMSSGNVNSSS

S1P1 [2] = target: T1, S1P1; test: S1P1 internalization assay in S1P1-U2OS cells (cell imaging); assay type: cell-based; conditions: U2OS cells expressing S1P1-EGFP, 1 hour
Experimental: Cellular functional assays: Internalization of Sphingosine-1-phosphate receptor 1 (S1P1) in a human Cell line (U2OS) in a 384-well format using a Cell Imaging analysis.
The S1P1 internalization assay was performed in 384 well plates (Corning® 384 black with clear bottom 3712) using S1P1-U2OS cells from Biolmage (C039A), a human epithelial cell line (Human Bone Osteosarcoma Epithelial Cells). These cells expressed the human S1P1 Receptor fused to the green fluorescent protein (EGFP). A standard CMV promoter (cytomegalovirus promoter) controls the expression of S1P1-EGFP and continuous expression was maintained by addition of geneticin to the culture medium.
S1P1Receptor desensitization induced the internalization of the membrane-localized S1P1-EGFP fusion protein to endosomes, which can be monitored by cell imaging analysis. The cells are plated in low serum medium (Dulbecco's Modified Eagle Medium (DMEM) with Glutamax-1 and high glucose, 1% Penicillin/Streptomycin, 1% Fetal Calf Serum (FCS), 0.5 mg/ml Geneticin) overnight.
The next day, S1P1-U2OS cells are incubated in 20 μl serum free medium (DMEM with Glutamax-1 and high glucose, 0.1% of fatty-acid free Bovin Serum Albumin (BSA), 10 mM, N′-2-Hydroxyethylpiperazine-N′-2 ethanesulphonic acid (HEPES) 1M) for 2 hours at 37° C./5% CO2. The cells are then treated with 4 μl compounds/agonists (6×/3% DMSO) for a total volume of 24 μl, and plates are incubated for 1 hour at 37° C./5% CO2.
S1P1-U2OS cells are fixed with 25 μl Paraformaldehyde 8% and stained with Hoechst 33345 dye (1:1000) for 20 minutes.
They were then washed 3 times with Phosphate Buffered Saline (PBS) and plates are sealed. The internalization of the receptor S1P1-EGFP is measured on Cellomics by calculating the “spot count per object” (“object” corresponds to nuclear and “spot” corresponds to S1P1-EGFP receptor). Internalization data were observed thanks to vHCS View and analyzed using Genedata® software.
Target sequence in this assay (P21453 whole entry): as the sequence (P21453 whole entry, species assumed) above

S1P3 = S1P3 (Homo sapiens, UniProt Q99500); test: Receptor binding assay, [33P]sphingosine 1-phosphate competition (SPA), S1P3
Experimental: Membranes were prepared from CHO cells expressing S1P1 or S1P3 for use in ligand and […] binding studies. Cells were suspended in 50 mM TRIS, pH 7.4, 2 mM EDTA, 250 mM Sucrose (buffer A) and 1× Complete protease inhibitor cocktail (Roche), and disrupted at 4° C. by N2 decompression using a cell disruption bomb (Parr Instrument). Following centrifugation at 1000 RPM for 10 min at 4° C., the supernatant was diluted (2×) in buffer A and centrifuged again at 19000 RPM for 75 min at 4° C. The pellet was then suspended in 10 mM HEPES, pH 7.4, 1 mM EDTA, 250 mM Sucrose (Buffer B), and 1× Complete EDTA-free protease inhibitor cocktail and homogenized using a potter. Membranes were flash frozen in liquid N2 and stored at −80° C.
[33P]sphingosine 1-phosphate (3000 Ci/mmol; American Radiolabeled Chemicals, Inc.) was added to test compounds in 20% DMSO by competition. Membranes and WGA SPA beads (GE Healthcare) were added to give a final volume of 100 μl in 96-well plates or 50 μl in 384-well plates with assay concentrations of 30 pM or 15 pM [33P]sphingosine 1-phosphate (respectively for S1P1 or S1P3), 50 mM HEPES, pH 7.5, 5 mM MgCl2, 100 mM NaCl, 0.4% fatty acid-free BSA, 1-5 μg/well of proteins in 96-well plates vs 0.6-1 μg/well of proteins in 384-well plates and 100 μg/well of WGA SPA beads in 96-well plates vs 75 μg/well of WGA SPA beads in 384-well plates. Binding was performed for 60 min at RT on a shaker and bound radioactivity was measured on a PerkinElmer 1450 MicroBeta counter. Triplicate samples were averaged and normalized as percentage of inhibition relative to total binding (only DMSO in well) and non-specific binding (1000-fold excess of unlabeled S1P). Binding data were analyzed using the GraphPad Prism program or Genedata software.

[3] = 96 well-plate, read-out: S1P1 binding Ki (M) (96 well-plate)
[4] = 96 well-plate, read-out: S1P3 binding Ki (M) (96 well-plate)
[5] = 384 well-plate, read-out: S1P1 binding Ki (M) (384 well-plate)
[6] = 384 well-plate, read-out: S1P3 binding Ki (M) (384 well-plate)

S1P3, sequence (Q99500 whole entry, species assumed): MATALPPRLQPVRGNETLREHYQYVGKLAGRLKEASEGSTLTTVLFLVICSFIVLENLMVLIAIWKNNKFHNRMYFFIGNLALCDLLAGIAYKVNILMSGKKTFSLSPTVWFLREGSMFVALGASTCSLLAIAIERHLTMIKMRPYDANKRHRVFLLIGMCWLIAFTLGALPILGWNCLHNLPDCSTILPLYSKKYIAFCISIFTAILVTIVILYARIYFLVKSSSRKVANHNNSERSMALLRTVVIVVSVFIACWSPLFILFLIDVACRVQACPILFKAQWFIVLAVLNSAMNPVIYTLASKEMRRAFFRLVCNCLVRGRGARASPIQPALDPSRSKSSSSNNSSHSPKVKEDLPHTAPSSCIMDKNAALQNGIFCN

Ki (S1P1 [1]; [3]) [M]	EC50 (S1P1 [2]) [nM]	Ki (S1P3; [4]) [M]	Ki (S1P1 [1]; [5]) [M]	Ki (S1P3; [6]) [M]	Structure (SMILES)
2.96e-10	8.11	3.68e-08			Cc1ccccc1-c1ccc(-c2nc(-c3cc(F)cc(CN(C)CC(=O)O)c3)no2)cc1C(F)(F)F [Example 64, N-(3-fluoro-5-{5-[2′-methyl-2-(trifluoromethyl)biphenyl-4-yl]-1,2,4-oxadiazol-3-yl}benzyl)-N-methylglycine]
	68.4		3.71e-09	1.25e-05	Cc1cc(-c2nc(-c3ccc(CN(C)CC(=O)O)c(F)c3F)no2)ccc1-c1ccccc1C(F)(F)F [Example 152, 2-((2,3-difluoro-4-(5-(2-methyl-2′-(trifluoromethyl)biphenyl-4-yl)-1,2,4-oxadiazol-3-yl)benzyl)(methyl)amino)acetic acid]
	37.3		4.07e-09	1.8e-05	CN(CC(=O)O)Cc1ccc(-c2noc(-c3ccc(-c4ccccc4C(F)(F)F)c(Cl)c3)n2)cc1F [Example 134, N-(4-{5-[2-chloro-2′-(trifluoromethyl)biphenyl-4-yl]-1,2,4-oxadiazol-3-yl}-2-fluorobenzyl)-N-methylglycine]
4.26e-10	13.9	6.5e-07	3.67e-09	1.03e-06	COCc1cc(-c2nc(-c3ccc(CN(C)CC(=O)O)c(F)c3)no2)ccc1-c1ccccc1C(F)(F)F [Example 95, N-(2-fluoro-4-{5-[2-(methoxymethyl)-2′-(trifluoromethyl)biphenyl-4-yl]-1,2,4-oxadiazol-3-yl}benzyl)-N-methylglycine]
	24.8	2.17e-06	2.9e-09	2.7e-06	Cc1ccccc1-c1ccc(-c2nc(-c3ccc(CN(CC(=O)O)C(C)C)cc3)no2)cc1C(F)(F)F [Example 113, (Isopropyl-{4-[5-(2′-methyl-2-trifluoromethyl-biphenyl-4-yl)-[1,2,4]oxadiazol-3-yl]-benzyl}-amino)-acetic acid]
	11.9		1.5e-09	2.93e-07	CCc1ccccc1-c1ccc(-c2nc(-c3ccc(CN(C)CC(=O)O)cc3)no2)cc1C(F)(F)F [Example 109, N-(4-{5-[2′-ethyl-2-(trifluoromethyl)biphenyl-4-yl]-1,2,4-oxadiazol-3-yl}benzyl)-N-methylglycine]
	15		8.98e-09	2.14e-06	Cc1cc(-c2nc(-c3cc(F)cc(CN(C)CC(=O)O)c3)no2)ccc1-c1ccccc1C(F)(F)F [Example 104, N-(3-fluoro-5-{5-[2-methyl-2′-(trifluoromethyl)biphenyl-4-yl]-1,2,4-oxadiazol-3-yl}benzyl)-N-methylglycine]
	17.3		3.72e-09	8.1e-06	CCc1cc(-c2noc(-c3ccc(-c4ccccc4C)c(C(F)(F)F)c3)n2)ccc1CN(C)CC(=O)O [Example 155, 2-((2-ethyl-4-(5-(2′-methyl-2-(trifluoromethyl)biphenyl-4-yl)-1,2,4-oxadiazol-3-yl)benzyl)(methy)amino)acetic acid]
	50.9		3.32e-09	7.5e-06	Cc1cc(-c2nc(-c3ccc(CN(C)CC(=O)O)cc3Cl)no2)ccc1-c1ccccc1C(F)(F)F [Example 153, 2-((3-chloro-4-(5-(2-methyl-2′-(trifluoromethyl)biphenyl-4-yl)-1,2,4-oxadiazol-3-yl)benzyl)(methyl)amino)acetic acid]
	9.44		2.22e-09	2.85e-07	Cc1ccccc1-c1ccc(-c2nc(-c3ccc(CN(C)CC(=O)O)cc3Cl)no2)cc1C(F)(F)F [Example 145, 2-((4-(5-(2-(trifluoromethyl)-2′-methylbiphenyl-4-yl)-1,2,4-oxadiazol-3-yl)-3-chlorobenzyl)(methyl)amino)acetic acid]
2.31e-10	11.9	3.69e-08			CN(CC(=O)O)Cc1cc(F)cc(-c2noc(-c3ccc(-c4ccccc4)c(C(F)(F)F)c3)n2)c1 [Example 67]
	24.7		2.38e-09	8.34e-07	Cc1ccccc1-c1ccc(-c2nc(-c3cc(F)c(CN(C)CC(=O)O)c(F)c3)no2)cc1C(F)(F)F [Example 148, 2-((2,6-difluoro-4-(5-(2′-methyl-2-(trifluoromethyl)biphenyl-4-yl)-1,2,4-oxadiazol-3-yl)benzyl)(methyl)amino)acetic acid]
3.49e-10	6.53	6.29e-07	1.19e-09	5.69e-07	CN(CC(=O)O)Cc1ccc(-c2noc(-c3ccc(-c4ccccc4F)c(C(F)(F)F)c3)n2)cc1 [Example 89, N-(4-{5-[2′-fluoro-2-(trifluoromethyl)biphenyl-4-yl]-1,2,4-oxadiazol-3-yl}benzyl)-N-methylglycine]
2.7e-10	2.05	1.88e-07			Cc1ccccc1-c1ccc(-c2nc(-c3ccc(CN(C)CCC(=O)O)cc3)no2)cc1C(F)(F)F [Example 72]
	30.4		3.46e-09	6.9e-06	Cc1cc(-c2nc(-c3ccc(CN(C)CC(=O)O)c(F)c3)no2)ccc1-c1ccccc1C(F)(F)F [Example 123, N-(2-fluoro-4-{5-[2-methyl-2′-(trifluoromethyl)biphenyl-4-yl]-1,2,4-oxadiazol-3-yl}benzyl)-N-methylglycine]
	3.65	3.33e-07	1.33e-09	1.31e-06	Cc1ccccc1-c1ccc(-c2nc(-c3ccc(CN(C)CCCC(=O)O)cc3)no2)cc1C(F)(F)F [Example 116, 4-[methyl(4-{5-[2′-methyl-2-(trifluoromethyl)biphenyl-4-yl]-1,2,4-oxadiazol-3-yl}benzyl)amino]butanoic acid]
	74.9	1.83e-06	3.3e-09	1.88e-06	COCc1cc(-c2nc(-c3ccc(CN(C)CC(=O)O)c(C(F)(F)F)c3)no2)ccc1-c1ccccc1C [Example 105]
	15.6	1.09e-06	1.91e-09	9.14e-07	COCc1cc(-c2nc(-c3cccc(CN(C)CC(=O)O)c3F)no2)ccc1-c1ccccc1C(F)(F)F [Example 114, N-(2-fluoro-3-{5-[2-(methoxymethyl)-2′-(trifluoromethyl)biphenyl-4-yl]-1,2,4-oxadiazol-3-yl}benzyl)-N-methylglycine]
	9.03	6.68e-07	2.15e-09	2.21e-06	CCOc1cc(-c2nc(-c3ccc(CN(C)CC(=O)O)cc3)no2)ccc1-c1ccccc1C(F)(F)F [Example 115, N-(4-{5-[2-ethoxy-2′-(trifluoromethyl)biphenyl-4-yl]-1,2,4-oxadiazol-3-yl}benzyl)-N-methylglycine]
